Measurements published in patent US9278936B2, “Crystalline forms of 1-(3-tert-butyl-1-p-tolyl-1H-pyrazol-5-yl)-3-(5-fluoro-2-(1-(2-hydroxyethyl)-1H-indazol-5-yloxy)benzyl)urea hydrochloride” (Array BioPharma Inc., priority 2012, dated 2016).

Key:
p38 MAPK = details: cited from earlier work
Tie2 protein kinase = Tie2 protein kinase (Homo sapiens, UniProt Q02763); details: cited from earlier work
[1] = Pharmacokinetics, relative bioavailability and food effect in healthy subjects following single oral doses; format: in vivo, human; details: by 48 hours after dosing
Source text: Formulations 1 and 2 as well as the control are summarized below.
This study design encompassed 3 parallel treatment cohorts of unique subjects evaluating the two formulations (12 subjects per cohort) and the PIC control (6 subjects) in a fasted or fed state, as shown in Table 12. A crossover food-effect assessment for the two formulations occurred with Groups 1 and 2 within Periods 1 and 2.
For each period, subjects were divided into 2 groups of equal size to evaluate any potential period effects on the food-effect assessment. Subjects fasted for a minimum of 8 hours the night before and 4 hours following dosing for the fasted assessment. Subjects consumed a slightly modified standard high-fat meal 30 minutes before and fasted for 4 hours after dosing for the fed portion of the food-effect assessment. Following a 7-day washout after the initial dose, subjects being dosed with the novel formulations returned to the clinic for the Period 2 single dose in the fasted state or following the consumption of a high-fat meal, as appropriate. Within each cohort and period, all subjects were treated on the same day. The same subjects were utilized for Cohort 1—Periods 1 and 2, and likewise for Cohort 2—Periods 1 and 2.
Both days were considered single dose for analysis purposes. Pharmacokinetic parameters calculated included the following: […]

[2] = Aqueous solubility / BCS class; format: physicochemical

Sequence of Tie2 protein kinase (Q02763 23-1124): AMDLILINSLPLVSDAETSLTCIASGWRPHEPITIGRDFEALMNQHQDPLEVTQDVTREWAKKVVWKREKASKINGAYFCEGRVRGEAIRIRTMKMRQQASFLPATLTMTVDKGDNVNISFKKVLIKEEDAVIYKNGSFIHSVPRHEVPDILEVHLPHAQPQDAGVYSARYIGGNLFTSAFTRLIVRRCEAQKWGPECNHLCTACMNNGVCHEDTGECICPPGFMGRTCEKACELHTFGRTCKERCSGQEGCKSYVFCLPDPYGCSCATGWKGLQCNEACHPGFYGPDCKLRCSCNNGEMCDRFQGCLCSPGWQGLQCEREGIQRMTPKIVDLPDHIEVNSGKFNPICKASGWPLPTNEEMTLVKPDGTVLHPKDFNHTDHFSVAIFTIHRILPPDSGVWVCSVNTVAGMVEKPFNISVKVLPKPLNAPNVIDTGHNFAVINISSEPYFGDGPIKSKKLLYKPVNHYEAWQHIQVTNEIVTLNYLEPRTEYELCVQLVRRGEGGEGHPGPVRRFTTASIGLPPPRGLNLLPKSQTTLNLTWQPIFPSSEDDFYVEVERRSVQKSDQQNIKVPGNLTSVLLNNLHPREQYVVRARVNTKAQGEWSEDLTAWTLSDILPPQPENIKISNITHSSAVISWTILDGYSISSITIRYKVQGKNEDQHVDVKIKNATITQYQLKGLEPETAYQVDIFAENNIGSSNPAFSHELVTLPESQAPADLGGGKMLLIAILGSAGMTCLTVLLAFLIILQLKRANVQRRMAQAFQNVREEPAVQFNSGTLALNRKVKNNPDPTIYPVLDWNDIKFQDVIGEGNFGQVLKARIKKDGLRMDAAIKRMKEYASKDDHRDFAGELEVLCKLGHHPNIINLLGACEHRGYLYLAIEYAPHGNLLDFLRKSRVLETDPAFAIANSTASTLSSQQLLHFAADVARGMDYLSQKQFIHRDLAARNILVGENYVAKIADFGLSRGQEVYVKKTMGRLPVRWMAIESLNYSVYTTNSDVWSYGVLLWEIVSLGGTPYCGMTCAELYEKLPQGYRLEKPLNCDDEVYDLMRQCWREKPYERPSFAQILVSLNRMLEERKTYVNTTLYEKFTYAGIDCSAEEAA

mean plasma concentrations relative to the mean peak plasma concentrations [1]: less than 10%
BCS class [2]: Class II
solubility ([2]; aqueous media, aqueous buffer, across the typical physiological pH range of 2-8): < 10 µg/mL
Compound: Cc1ccc(-n2nc(C(C)(C)C)cc2NC(=O)NCc2cc(F)ccc2Oc2ccc3c(cnn3CCO)c2)cc1 [ARRY-614, 1-(3-Tert-butyl-1-p-tolyl-1H-pyrazol-5-yl)-3-(5-fluoro-2-(1-(2-hydroxyethyl)-1H-indazol-5-yloxy)benzyl)urea]
inhibitory activity against p38 MAPK (p38 MAPK): potent inhibitory activity
inhibitory activity against Tie2 protein kinase (Tie2 protein kinase): potent inhibitory activity
